ChEMBL document CHEMBL4431343, “Synthesis and activity of novel homodimers of Morita-Baylis-Hillman adducts against Leishmania donovani: A twin drug approach” (Bioorg Med Chem Lett, 2016)

What was measured:
[1] = tested on: Leishmania donovani; test: Antileishmanial activity against promastigote forms of Leishmania donovani MHOM/ET/1967/HU3 assessed as reduction in cell viability after 72 hrs by MTT assay; format: functional, organism-based; conditions: MHOM/ET/1967/HU3, 72 h
[2] = tested on: Leishmania donovani; test: Potency index, ratio of Amphotericin B IC50 to compound IC50 for promastigote forms of Leishmania donovani MHOM/ET/1967/HU3; format: functional
[3] = Hemolytic activity in human red blood cells; format: cell-based, Erythrocyte; conditions: red blood cells (erythrocytes)
[4] = Selectivity index, ratio of HC50 for human red blood cells to IC50 for promastigote forms of Leishmania donovani MHOM/ET/1967/HU3; format: toxicity; conditions: read-out: Selectivity Index

Row | SMILES | IC50 [1] [µM] | Ratio IC50 [2] | HC50 [3] [µM] | selectivity ratio [4]
1 | C=C(C(=O)OC)C(O)c1ccccc1[N+](=O)[O-] (centres undefined) | 690 | – | – | –
2 | C=C(C(=O)OC)C(O)c1cccc([N+](=O)[O-])c1 (centres undefined) | 161 | – | – | –
3 | C=C(C(=O)OC)C(O)c1ccc(F)cc1 (centres undefined) | 610 | – | – | –
4 | C=C(C(=O)OC)C(O)c1ccccc1 (centres undefined) | 953 | – | – | –
5 | C=C(C(=O)OC)C(O)c1ccc([N+](=O)[O-])cc1 (centres undefined) | 165 | – | – | –
6 | C=C(C(=O)OC)C(O)c1ccc(Br)cc1 (centres undefined) | 197 | – | – | –
7 | C=C(C(=O)OCCOC(=O)C(=C)C(O)c1cccc([N+](=O)[O-])c1)C(O)c1cccc([N+](=O)[O-])c1 (centres undefined) | 43 | – | – | –
8 | C=C(C(=O)OC)C(O)c1ccc2ccccc2c1 (centres undefined) | 185 | – | – | –
9 | C=C(C(=O)OCCOC(=O)C(=C)C(O)c1ccc([N+](=O)[O-])cc1)C(O)c1ccc([N+](=O)[O-])cc1 (centres undefined) | 44.6 | – | – | –
10 | C=C(C(=O)OCCOC(=O)C(=C)C(O)c1ccccc1[N+](=O)[O-])C(O)c1ccccc1[N+](=O)[O-] (centres undefined) | 24.8 | – | – | –
11 | C=C(C(=O)OCCOC(=O)C(=C)C(O)c1ccc(Br)cc1)C(O)c1ccc(Br)cc1 (centres undefined) | 0.5 | 1.24 | > 200 | > 400
12 | C=C(C(=O)OCCOC(=O)C(=C)C(O)c1ccccc1)C(O)c1ccccc1 (centres undefined) | 126 | – | – | –
13 | C=C(C(=O)OCCOC(=O)C(=C)C(O)c1ccc2ccccc2c1)C(O)c1ccc2ccccc2c1 (centres undefined) | 39 | – | – | –
14 | C=C(C(=O)OC)C(O)c1ccc(Cl)cc1 (centres undefined) | 202 | – | – | –
15 | C=C(C(=O)OCCOC(=O)C(=C)C(O)c1ccc(Cl)cc1)C(O)c1ccc(Cl)cc1 (centres undefined) | 10.5 | – | > 200 | > 19.1
16 | C=C(C(=O)OCCOC(=O)C(=C)C(O)c1ccc(F)cc1)C(O)c1ccc(F)cc1 (centres undefined) | 42.4 | – | – | –
17 | C[C@@H]1[C@H](O)[C@@H](C)/C=C/C=C/C=C/C=C/C=C/C=C/C=C/[C@H](O[C@@H]2O[C@H](C)[C@@H](O)[C@H](N)[C@@H]2O)C[C@@H]2O[C@](O)(C[C@@H](O)C[C@@H](O)[C@H](O)CC[C@@H](O)C[C@@H](O)CC(=O)O[C@H]1C)C[C@H](O)[C@H]2C(=O)O [AMPHOTERICIN B] | 0.62 | – | 11.6 | 18.7
